# In paper PMC5445283, “Selection and characterization of alanine racemase inhibitors against Aeromonas hydrophila” (BMC Microbiology, 2017):
# Where “and” joins values, the source holds several entries; their conditions need not be identical. Identical values can stand only once. Entries after “also recorded” stand apart in the source; their conditions may differ. Counter-ions that a name gives are not always drawn. Like-named read-outs stand apart in the source and are kept apart here.
# What was measured:
# [1] = tested on: D-amino acid oxidase (DAAO) and horseradish peroxidase (HRP); experiment: Assay interference counter screen (second step of the assay); format: biochemical; conditions: for inhibition of second-step enzymes / assay interference, in words: HRP and DAAO, within a concentration of 50 μM; for IC50: DAAO/HRP reaction, 10 μM D-ala as substrate, read-out: IC50 on the enzymes in the second step (counter screen)
# Protocol: To eliminate the inhibitory effects of the compounds on DAAO and HRP, a counter screening assay was performed as described above. The first-step assay mixtures without alanine racemase and L-alanine were added to each test well, followed by the addition of a twofold dilution series (in DMSO) of the inhibitors to the sample test wells, and finally, the addition of DMSO to the blank control wells. Then, DMSO was added to each well to obtain reaction mixtures at a final volume of 100 μl.
# Second, the D-amino acid oxidase reaction mixture was prepared using 10 μM D-ala as the substrate. The control and control blank for the enzyme assay was prepared with or without 10 μM D-ala and absorbance was measured at 550 nm.
# Caco-2 cells = tested on: Caco-2 cells; parameters: method as in PMID 22146584; conditions: cited from earlier work
# alanine racemase Alr-2 [2] = target: T1, alanine racemase Alr-2 (Aeromonas hydrophila, UniProt A0KL98); experiment: biochemical
# Protocol: Alanine racemase activity was measured at room temperature in the L → D direction using a spectrophotometric assay. The assay was modified by varying the volume to 100 μl and dividing it into two steps (Fig. 1).
# The first step (F1) is the production of the D-form amino acids. The optimized enzyme assay reaction mixture consisted of 10 μM PLP, 12.5 mM of NaHCO3-NaOH buffer (pH 11), and 50 mM L-alanine and alanine racemase. A total of 100 μl of this reaction mixture was added to the wells of a 96-well plate. After incubation at 35 °C for 10 min, the reaction was terminated by adding 12.5 μl of 2 M HCl, and the incubation was continued for 2 min on ice. The reaction mixture was centrifuged at 10,000 RPM, for 10 min at 4 °C, and 10 μl of 2 M NaOH was added to neutralize the reaction mixture. The second step (F2) is the conversion of D-alanine to α-keto acids using D-amino acid oxidase (DAAO). The formation of H2O2 from this reaction can be quantified using horseradish peroxidase (HRP) at 550 nm. The DAAO reaction mixture contained 200 mM of Tris-HCl (pH 8.0), 0.1 mg/ml 4-aminoantipyrine (AAP), 0.1 mg/ml N-ethyl-N-(2-hydroxy-3-sulfopropyl)-m-toluidine sodium salt (TOOS), 2 units of HRP, 0.1 unit of DAAO and D-form amino acid solution in a final volume of 100 μl. The negative control for the enzyme assay was prepared using the same procedure but without enzyme. After incubating at 37 °C for 30 min, the absorbance was measured at 550 nm using a Spectra MAX 190 microplate reader (Molecular Devices Corp., USA). One unit (U) of enzyme was defined as the amount of purified enzyme that catalyzed the formation of 1 μmol of D-alanine from L-alanine per minute.
# Each well (sample, control, and their blanks) contained the screening assay reaction mixture of 10 μM PLP and 12.5 mM NaHCO3-NaOH buffer (pH 11). Next, 4 μl of test substance (small molecular compounds or natural product extracts) was added to the sample and sample blank test tubes. Finally, […] alanine racemase was added to the sample and control test tubes while the same volume of DMSO was added to the sample blank and control blank test tubes. After incubation at 4 °C for 30 min, 50 mM L-alanine was added to the sample and control test wells while DMSO was added to the sample blank and control blank test wells to obtain a final volume of 100 μl. The control and control blank were defined as 100% and 0% of enzyme activity. The reaction was then carried out as described for the alanine racemase assay. The assay is divided into two steps: absorbance was measured at 550 nm at the end of the first (F1), and second (F2) steps and ΔF was defined as F2-F1. Inhibition activity was calculated from the following equation.
# Fourfold dilution series (in DMSO) were prepared for all the compounds, and the solutions were added to the wells of a 96-well plate to yield the final inhibitory concentrations. Each concentration was tested in triplicate. The substrate was added after incubation for 30 min, and the fluorescence intensity was measured after the reaction. The positive control (D-cycloserine, DCS) was diluted in DMSO, and the negative control was prepared without adding an inhibitor to the control wells of each plate. Percentage inhibition at each inhibitor concentration was calculated with respect to the negative control. The results were analyzed using the SPSS 16.0 IBM modeler to calculate the compound concentration that causes 50% inhibition (IC50).
# A. hydrophila = experiment: Antimicrobial susceptibility test, MIC by microdilution; format: cell-based, Aeromonas hydrophila; conditions: for MIC: Aeromonas hydrophila, read-out: MIC against A.hydrophila; for growth inhibition of A. hydrophila, in words: screen for antimicrobial activity
# Protocol: (§1) A. hydrophila was cultured for 18 h, washed with PBS (pH 7.2), and adjusted to an OD600 value of 0.5. Next, the culture was diluted tenfold five times, and aliquots were spread on LB agar in triplicate to determine the number of colony-forming units (CFU)/ml.
# (§2) The minimum inhibitory concentration (MIC) of the chemical compounds against A. hydrophila was determined using the microdilution method in accordance with the guidelines of the Clinical and Laboratory Standards Institute, document M31-A3 [16], following the method described by Dal Pozzo et al.. Compounds were diluted in DMSO at concentrations of 80, 40, 20, or 10 μg/ml. Appropriate controls were included in all tests. DCS is a naturally occurring antibacterial compound that targets alanine racemase involved in peptidoglycan synthesis. DCS was used as a positive control ([…]), DMSO solvent was used as a negative control for growth inhibition and DMSO alone was used as the blank control. All tests were performed in triplicate. The inoculum was prepared in LB culture medium (1 × 10^8 CFU/ml; OD600 = 0.3) and cultured at 30 °C/20 h. The inoculum (100 μl; 1 × 10^5 CFU) was added to each well containing compounds. The microplates were incubated at 30 °C for 20 h.
# A. hydrophila Δalr-2 = format: cell-based, Aeromonas hydrophila; conditions: for MIC against A.hydrophila Δalr-2: average values with standard deviations in parentheses, NC: non calculable as the values are too high
# Protocol: A. hydrophila HBNUAh01 isolated from infected Paralichthys olivaceus and an A. hydrophila alr-2 knockout mutant were used in this study. Escherichia coli BL-21(DE3) cells were used for protein expression. The pET-25b-alr2 plasmid was used for protein expression. The A. hydrophila and E. coli strains were cultured in Luria-Bertani (LB) medium at 30 °C and 37 °C, respectively. For plasmid selection, 0.5 mmol/l ampicillin (AMP, Sigma–Aldrich Inc., USA) was added to the LB medium for experiments with E. coli.
# as §1, §2
# alanine racemase Alr-2 [3] = target: T1, alanine racemase Alr-2; experiment: Kinetics of alanine racemase inhibition (Lineweaver-Burk); format: biochemical; conditions: for Ki: Lineweaver-Burk analysis, read-out: inhibition constant Ki; for type (mode) of inhibition: Lineweaver-Burk profile
# Protocol: The mode of inhibition of the enzyme by the compounds was determined as follows. The experiment was composed of three sets of reactions in which each set consisted of four concentrations of substrate in the presence of fixed amounts of alanine racemase, and three different concentrations of inhibitors were used. For homogentisic acid and hydroquinone, 0, 0.02 and 0.04 mg/ml were used. The reactions were made as described. The amount of product was determined spectrophotometrically and subsequently the standard curve was used to obtain reaction velocities. A double reciprocal plot (1/V versus 1/[S]), where V is reaction velocity and [S] is substrate concentration, was plotted. The type (mode) of inhibition of enzyme activity by the compounds was determined by analysis of the double reciprocal (Lineweaver-Burk) plot using Michaelis-Menten kinetics. The inhibition constant (K i) of the inhibitors was determined.
# HeLa cells = format: cell-based; conditions: for cytotoxicity, in words: MTT assay, HeLa / mammalian cells; for TC50, cytotoxicity in HeLa cells: MTT, 48 h exposure, average values with standard deviations, NC: non calculable as the values are too high
# Protocol: This assay was performed in a 96-well plate format and used HeLa cells. The cell viability was determined using 3-(4,5-dimethyl-2-thiazole)-2,5-diphenyl-2H-tetrazolium bromide (MTT, Sigma-Aldrich). Cells were seeded in culture medium in microplates (4000 cells/well) and incubated at 37 °C for 24 h before drug treatments. […] The cells were exposed to the compounds for 48 h. At the end of the incubation, the cells were exposed to MTT (0.5 mg/ml) at 37 °C for 4 h. The reduced crystals were dissolved in DMSO, and absorbance was detected at 490 nm. The […] were set as zero absorbance. The percentage of cell survival was calculated using the background-corrected absorbance as follows: Cell survival (%) = (ODexperiment/ODcontrol) × 100. The data represent the mean and standard deviation from triplicate determination.
# [4] = average values with standard deviations in parentheses, NC: non calculable as the values are too high
# [5] = average values with standard deviations in parentheses, read-out: IC50 against Alr-2 with PLP
# T1 sequence (A0KL98 entry or part of it): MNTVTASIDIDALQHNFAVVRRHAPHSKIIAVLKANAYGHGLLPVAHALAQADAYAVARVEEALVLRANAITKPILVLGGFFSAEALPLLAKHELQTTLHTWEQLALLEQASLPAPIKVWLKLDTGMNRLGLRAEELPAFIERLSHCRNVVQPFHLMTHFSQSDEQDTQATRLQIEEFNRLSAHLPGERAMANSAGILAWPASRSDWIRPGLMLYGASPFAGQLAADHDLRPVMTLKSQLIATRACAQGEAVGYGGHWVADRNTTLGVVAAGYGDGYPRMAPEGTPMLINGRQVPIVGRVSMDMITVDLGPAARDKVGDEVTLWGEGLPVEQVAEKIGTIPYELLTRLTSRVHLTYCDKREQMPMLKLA
compound,measurement,setting,value
"O=C1C=C2C(=CCOC2O)O1 (centres unmarked) [Compound I-2, Patulin]","inhibition of second-step enzymes / assay interference, in words",[1],weak inhibition
same,"inhibition of second-step enzymes / assay interference, in words",[1]; listed as patulin,No assay interference
same,IC50 against Caco-2 cells,Caco-2 cells,0.62 µg/mL
same,IC50,alanine racemase Alr-2 [2],14.7 µM
same,MIC,A. hydrophila,20 µg/mL
same,"growth inhibition of A. hydrophila, in words",A. hydrophila,inhibit the growth of A. hydrophila significantly
same,MIC against A.hydrophila Δalr-2,A. hydrophila Δalr-2,80(3.96) μg/ml
"O=C(O)Cc1cc(O)ccc1O [Compound I-3, Homogentisic acid]",IC50,[1],96.1 µM
same,"inhibition of second-step enzymes / assay interference, in words",[1],No assay interference
same,IC50,alanine racemase Alr-2 [2],12.5 µM
same,MIC,A. hydrophila; [4],120 µg/mL
same,"growth inhibition of A. hydrophila, in words",A. hydrophila,inhibit the growth of A. hydrophila significantly
same,"antimicrobial activity against A. hydrophila Δalr-2, in words",A. hydrophila Δalr-2,no antimicrobial activity
same,Ki,alanine racemase Alr-2 [3],51.7 µM
same,type (mode) of inhibition,alanine racemase Alr-2 [3],competitive type of inhibition
same,"cytotoxicity, in words",HeLa cells,minimal cytotoxicity
same,"TC50, cytotoxicity in HeLa cells",HeLa cells,157.7 μg/ml and 157.7(6.1) μg/ml
"CCCCC1(C)C=CC(=C2C(=O)OC(=CC(=O)O)C2=O)O1 (centres unmarked) [Compound I-4, Acetic acid,[4-(5-butyl-5-methyl-2(5H)-furanylidene)dihydro −3,5-dioxo-2(3H)-furanylidene]-(9CI)]",IC50,alanine racemase Alr-2 [2]; [5],8.9 µM
"CCCOC(=O)c1cc(O)c(O)c(O)c1 [Compound I-5, Propyl Gallate]",IC50,alanine racemase Alr-2 [2]; [5],8.6 µM
"Oc1ccc(O)cc1 [Compound I-6, Hydroquinone]",IC50,[1],113 µM
same,"inhibition of second-step enzymes / assay interference, in words",[1],No assay interference
same,IC50,alanine racemase Alr-2 [2],18.5 µM
same,MIC,A. hydrophila; [4],80 µg/mL
same,"growth inhibition of A. hydrophila, in words",A. hydrophila,inhibit the growth of A. hydrophila significantly
same,MIC against A.hydrophila Δalr-2,A. hydrophila Δalr-2,140(2.4) μg/ml
same,Ki,alanine racemase Alr-2 [3],212 µM
same,type (mode) of inhibition,alanine racemase Alr-2 [3],noncompetitive inhibitor; also recorded: noncompetitive type of inhibition
same,"cytotoxicity, in words",HeLa cells,minimal cytotoxicity
same,"TC50, cytotoxicity in HeLa cells",HeLa cells,122.9 μg/ml and 122.9(8.9) μg/ml
"O=C(O)CCc1ccccc1Nc1c2ccccc2nc2ccccc12 [Compound I-7, Benzenepropanoic acid,2-(9-acridinylamino)-monohydrochloride]",IC50,alanine racemase Alr-2 [2]; [5],17.7 µM
"Oc1cc2c(cc1O)C1c3ccc(O)c(O)c3OCC1(O)C2 (centres unmarked) [Compound I-8, Haematoxylin]",IC50,alanine racemase Alr-2 [2]; [5],15.6 µM
"Oc1ccc(CC2NCCc3cc(O)c(O)cc32)cc1 (centres unmarked) [Compound I-9, Higenamine]",IC50,alanine racemase Alr-2 [2],14.3 µM
"O=c1c(O)c(-c2ccc(O)c(O)c2)oc2cc(O)cc(O)c12 [Compound I-10, Quercetin]",IC50,alanine racemase Alr-2 [2],15.5 µM
"N[C@@H]1CON=C1O [DCS, D-cycloserine, reference compound]",IC50,alanine racemase Alr-2 [2]; [5],5.4 µM
same,MIC,A. hydrophila; [4],25 µg/mL
same,MIC against A.hydrophila Δalr-2,A. hydrophila Δalr-2,50(2.9) μg/ml
same,"TC50, cytotoxicity in HeLa cells",HeLa cells,149.6 μg/ml and 149.6(5.9) μg/ml
Anabellamide [Compound I-1],IC50,alanine racemase Alr-2 [2]; [5],6.6 µM
